Results reported in patent US20190091339A1, “ABIRATERONE-CYCLIC OLIGOMER PHARMACEUTICAL FORMULATIONS AND METHODS OF FORMATION AND ADMINISTRATION THEREOF” (DISPERSOL TECHNOLOGIES, LLC, priority 2017, published 2019).
Values joined by “and” are separate entries in the source; they are usually repeats but may differ in a detail not shown here. Identical values can stand only once.

What was measured:
[1] = test system: prostate specific antigen (PSA); settings: 1,000 mg abiraterone acetate daily, well controlled trials; cited from earlier work
[2] = test system: 22RV1 human prostate tumor xenograft; assay: Anti-tumor study in 22RV1 xenograft mice; assay type: in vivo, CB.17 SCID mice; settings: for Tumor Volume Day 26, individual mice: QD to End, Oral Gavage; for % T/C (mean tumor volume) / % T/C (median tumor volume) / Mean Tumor Volume / Median Tumor Volume: Day 26
Description: The objective of the xenograft mice study was to determine the anti-tumor activity of a composition made per Example 2.4 as a single agent versus abiraterone acetate in the 22RV1 human prostate tumor xenograft model. The study was conducted in CB.17 SCID mice injected with 22RV1 cells (5×10^6 cells/mouse) in the subcutaneous right flank. Tumors were grown to a mean tumor size between 100 and 150 mm^3 prior to study enrollment. The mice were dosed with the test article and reference once-daily by oral gavage per Table 12. Tumor volume was measured throughout the study. The study was terminated on day 26 when mean tumor volume of two experimental groups reached ≥1500 mm^3.

[3] = Abiraterone Acetate 22.4 mg/kg QD PO
[4] = Abiraterone Acetate 100 mg/kg QD PO

CC(=O)O[C@H]1CC[C@@]2(C)C(=CC[C@@H]3[C@@H]2CC[C@]2(C)C(c4cccnc4)=CC[C@@H]32)C1 [Abiraterone Acetate, (3β)-17(3-pyridinyl)androsta-5,16-dien-3-ol acetate]
treated patients achieving target PSA reductions [1]: up to 60% | Tumor Volume Day 26, individual mice ([2]; Abiraterone Acetate Dose #1, 22.4 mg/kg): 1,062 mm^3 and 1,389 mm^3 and 808 mm^3 and 1,555 mm^3 and 2,107 mm^3 and 726 mm^3 and 1,606 mm^3 and 1,119 mm^3 and 1,127 mm^3 and 1,143 mm^3 | Tumor Volume Day 26, individual mice ([2]; Abiraterone Acetate Dose #2, 100 mg/kg): 1,609 mm^3 and 1,639 mm^3 and 1,084 mm^3 and 1,490 mm^3 and 1,429 mm^3 and 1,453 mm^3 and 1,152 mm^3 and 1,568 mm^3 and 1,287 mm^3 and 2,787 mm^3 | % T/C (mean tumor volume) [2, 3]: 84.1% | % T/C (median tumor volume) [2, 3]: 72.8% | Mean Tumor Volume [2, 3]: 1264.2 mm^3 | Median Tumor Volume [2, 3]: 1135.0 mm^3 | % T/C (mean tumor volume) [2, 4]: 103.1% | % T/C (median tumor volume) [2, 4]: 94.4% | Mean Tumor Volume [2, 4]: 1549.4 mm^3 | Median Tumor Volume [2, 4]: 1471.5 mm^3 | tumor growth relative to vehicle control ([2]; once-daily oral gavage, low and high doses, 22RV1 xenograft mice): did not result in statistically different tumor growth
